Results on 21 molecules are retold here after US12661342B2, “Heteroaryl compounds and therapeutic uses thereof in conditions associated with the alteration of the activity of beta-glucocerebrosidase” (GT GAIN THERAPEUTICS SA, priority 2019, dated 2026).

The target in the test is T1, β-glucocerebrosidase (Homo sapiens, UniProt P04062, L483P).
T1 construct: host or cells: human Gaucher disease patient fibroblasts GM08760A
T1 sequence (P04062 40-536 L483P): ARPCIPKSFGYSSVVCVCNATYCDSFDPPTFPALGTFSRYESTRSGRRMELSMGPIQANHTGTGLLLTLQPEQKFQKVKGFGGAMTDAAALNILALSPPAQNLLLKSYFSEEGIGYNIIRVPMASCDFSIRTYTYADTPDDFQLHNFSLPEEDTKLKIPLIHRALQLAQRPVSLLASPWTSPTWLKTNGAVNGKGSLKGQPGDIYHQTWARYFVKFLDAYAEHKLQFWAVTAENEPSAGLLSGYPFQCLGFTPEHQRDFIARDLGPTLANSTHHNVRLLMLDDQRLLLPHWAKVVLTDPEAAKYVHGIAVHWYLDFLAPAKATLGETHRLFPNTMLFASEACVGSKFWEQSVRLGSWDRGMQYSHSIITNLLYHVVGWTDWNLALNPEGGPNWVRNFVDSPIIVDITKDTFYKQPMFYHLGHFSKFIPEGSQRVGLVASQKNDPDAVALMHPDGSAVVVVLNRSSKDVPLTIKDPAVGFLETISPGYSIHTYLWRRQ
In words: Enhancement of β-glucocerebrosidase activity measured in Gaucher disease fibroblasts (4-MU-β-D-glucopyranoside substrate, intact cells). Type of test: cell-based. The note with it: GBA fibroblasts bearing L444P (GM08760A, homozygous p.L444P); compound at concentrations between 6 and 50 μM; 4 days incubation. On the procedure: Human fibroblasts from a patient with Gaucher disease homozygous for p.L444P mutation (GM08760A) were purchased from Coriell Institute for Medical Research (Camden, NJ, USA).
Fibroblasts were seeded at 5×10^3 cells per well in 96-well cell culture plates (Corning, NY, USA) in Dulbecco's Modified Eagle's Media (DMEM) supplemented with 10% of fetal bovine serum (FBS), 1% penicillin/streptomycin (P/S) (Thermo Fisher Scientific, Waltham, MA, USA) and grown at 37° C., 5% CO2 overnight for cell attachment. Subsequently, cells were incubated in the absence or presence of the compounds at the desired concentration for 4 days. After incubation, cells were washed twice with phosphate-buffered saline (PBS) and enzyme activity assay was performed.
β-glucocerebrosidase activity in intact cultured cells was measured by using 4-methylumbelliferyl-β-D-glucopyranoside substrate (Apollo Scientific, UK). Briefly, cells were incubated with 4-MU-β-D-glucopyranoside in 0.1 M acetate buffer pH=4 at 37° C. for 1 hour. The reaction was stopped by adding 200 μL at 100 mM glycine-NaOH pH=10.7. The liberated 4-MU was measured on a GloMax Discover plate reader (Promega, Madison, WI, USA) with and excitation at 340 nm and emission at 460 nm. Enzyme activities were expressed in treated cells as X-fold increase in comparison with non-treated cells (X=1 represents no enhancement).
The capacity of the compounds of the disclosure to produce an increase in enzyme activity in GBA fibroblasts bearing L444P at concentrations between 6 and 50 μM is denoted as follows: • Increase in comparison with non-treated of >2.0 fold is shown as A • Increase in comparison with non-treated of >1.7-2.0 fold is shown as B • Increase in comparison with non-treated of 1.2-1.7 fold is shown as C • D means that no increase compared with non-treated cells was detected in this method • ND means “not determined”

Regarding `Nc1cc(Nc2ccccc2O)cc(C(=O)Nc2ccccc2)n1` [Example 65, 6-Amino-4-((2-hydroxyphenyl)amino)-N-phenylpicolinamide], the “Range: increase in enzyme activity in comparison with non-treated cells (Enzyme activity assay for compounds of Examples 33-141)” value is “A (Increase in comparison with non-treated of >2.0 fold is shown as A)”. Still for that read-out and setting: for `COc1cccc(Nc2cc(N)cc(C(=O)NC3Cc4ccccc4C3)n2)c1` [Example 100, 4-Amino-N-(2,3-dihydro-1H-inden-2-yl)-6-((3-methoxyphenyl)amino)picolinamide] the value was “A (Increase in comparison with non-treated of >2.0 fold is shown as A)”; for `Nc1cc(C(=O)N2Cc3ccccc3C2)nc(Nc2cccc(O)c2)n1` [Example 39, (6-Amino-2-((3-hydroxyphenyl)amino)pyrimidin-4-yl)(isoindolin-2-yl)methanone], “C (Increase in comparison with non-treated of 1.2-1.7 fold is shown as C)”; for `Nc1cc(C(=O)N2CCc3ccccc3C2)nc(Nc2ccccc2O)n1` [Example 35, (6-Amino-2-((2-hydroxyphenyl)amino)pyrimidin-4-yl)(3,4-dihydroisoquinolin-2(1H)-yl)methanone], “C (Increase in comparison with non-treated of 1.2-1.7 fold is shown as C)”. On to `Cc1ccc(Nc2nc(N)cc(C(=O)N(C)Cc3ccccc3)n2)cc1` [Example 21, 6-Amino-N-benzyl-N-methyl-2-(p-tolylamino)pyrimidine-4-carboxamide], for which the “Range: increase in enzyme activity in comparison with non-treated cells (Enzyme activity assay for exemplified compounds)” value is “C (Increase in comparison with non-treated of 1.2-1.7 fold is shown as C)”. On to `Cl.Nc1cc(Nc2cccc(F)c2)nc(C(=O)Nc2ccccc2)c1` [Example 134, 4-Amino-6-((3-fluorophenyl)amino)-N-phenylpicolinamide hydrochloride], for which the “Range: increase in enzyme activity in comparison with non-treated cells (Enzyme activity assay for compounds of Examples 33-141)” value is “A (Increase in comparison with non-treated of >2.0 fold is shown as A)”. Same read-out and setting: the value for `Nc1cc(Nc2ccccc2F)nc(C(=O)N2CCN(c3ccccc3)CC2)c1` [Example 48, (4-Amino-6-((2-fluorophenyl)amino)pyridin-2-yl)(4-phenylpiperazin-1-yl)methanone] was “C (Increase in comparison with non-treated of 1.2-1.7 fold is shown as C)”. Take `Nc1cc(Nc2ccccc2O)nc(C(=O)N2CCN(c3ccccc3)CC2)c1` [Example 88, (4-Amino-6-((2-hydroxyphenyl)amino)pyridin-2-yl)(4-phenylpiperazin-1-yl)methanone]: the “Range: increase in enzyme activity in comparison with non-treated cells (Enzyme activity assay for compounds of Examples 33-141)” value is given as “C (Increase in comparison with non-treated of 1.2-1.7 fold is shown as C)”. Consider `COc1ccccc1Nc1nc(N)nc2c1CCN(Cc1ccccc1)C2` [Example 24, 7-Benzyl-N4-(2-methoxyphenyl)-5,6,7,8-tetrahydropyrido[3,4-d]pyrimidine-2,4-diamine], for which the “Range: increase in enzyme activity in comparison with non-treated cells (Enzyme activity assay for exemplified compounds)” value is recorded as “C (Increase in comparison with non-treated of 1.2-1.7 fold is shown as C)”. For the molecule `Nc1nc(Nc2ccccc2O)cc(C(=O)NC2CCc3ccccc3C2)n1` (stereo not drawn) [Example 84, 2-Amino-6-((2-hydroxyphenyl)amino)-N-(1,2,3,4-tetrahydronaphthalen-2-yl)pyrimidine-4-carboxamide], the “Range: increase in enzyme activity in comparison with non-treated cells (Enzyme activity assay for compounds of Examples 33-141)” value is listed as “C (Increase in comparison with non-treated of 1.2-1.7 fold is shown as C)”. On to `COc1cccc(Nc2nc(N)cc(C(=O)N3CCN(c4ccccc4)CC3)n2)c1` [Example 2, (6-Amino-2-((3-methoxyphenyl)amino)pyrimidin-4-yl)(4-phenylpiperazin-1-yl)methanone], for which the “Range: increase in enzyme activity in comparison with non-treated cells (Enzyme activity assay for exemplified compounds)” value is listed as “C (Increase in comparison with non-treated of 1.2-1.7 fold is shown as C)”. For the molecule `Nc1cc(Nc2cccnc2)cc(C(=O)Nc2ccccc2)n1` [Example 80, 6-Amino-N-phenyl-4-(pyridin-3-ylamino)picolinamide], the “Range: increase in enzyme activity in comparison with non-treated cells (Enzyme activity assay for compounds of Examples 33-141)” value is recorded as “C (Increase in comparison with non-treated of 1.2-1.7 fold is shown as C)”. Still for that read-out and setting: the value for `Nc1cc(Nc2cccc(F)c2)nc(C(=O)N2Cc3ccccc3C2)c1` [Example 116, (6-(3-Fluorophenylamino)-4-aminopyridin-2-yl)(isoindolin-2-yl)methanone] was “C (Increase in comparison with non-treated of 1.2-1.7 fold is shown as C)”; that for `CN(C(=O)c1cc(N)cc(Nc2ccccc2O)n1)c1ccccc1` [Example 110, 4-Amino-6-((2-hydroxyphenyl)amino)-N-methyl-N-phenylpicolinamide] was “C (Increase in comparison with non-treated of 1.2-1.7 fold is shown as C)”; that for `COc1cccc(Nc2cc(N)cc(C(=O)Nc3ccccc3)n2)c1.Cl` [Example 135, 4-Amino-6-((3-methoxyphenyl)amino)-N-phenylpicolinamide hydrochloride] was “A (Increase in comparison with non-treated of >2.0 fold is shown as A)”. For `Nc1nc(Nc2ccccc2O)nc2c1CCN(Cc1ccccc1)C2` [Example 29, 2-((4-Amino-7-benzyl-5,6,7,8-tetrahydropyrido[3,4-d]pyrimidin-2-yl)amino)phenol], the “Range: increase in enzyme activity in comparison with non-treated cells (Enzyme activity assay for exemplified compounds)” value is recorded as “B (Increase in comparison with non-treated of >1.7-2.0 fold is shown as B)”. Take `Cc1ccc(Nc2cc(N)nc(C(=O)Nc3ccccc3)c2)c(O)c1` [Example 77, 6-Amino-4-((2-hydroxy-4-methylphenyl)amino)-N-phenylpicolinamide]: the “Range: increase in enzyme activity in comparison with non-treated cells (Enzyme activity assay for compounds of Examples 33-141)” value is on record as “C (Increase in comparison with non-treated of 1.2-1.7 fold is shown as C)”. Consider `Nc1cc(C(=O)N2Cc3ccccc3C2)nc(Nc2ccccc2O)n1` [Example 8, (6-Amino-2-((2-hydroxyphenyl)amino)pyrimidin-4-yl)(isoindolin-2-yl)methanone], for which the “Range: increase in enzyme activity in comparison with non-treated cells (Enzyme activity assay for exemplified compounds)” value is reported as “C (Increase in comparison with non-treated of 1.2-1.7 fold is shown as C)”. Turning to `CN(C(=O)c1cc(N)cc(Nc2cccc(F)c2)n1)C1Cc2ccccc2C1` [Example 107, 4-Amino-N-(2,3-dihydro-1H-inden-2-yl)-6-((3-fluorophenyl)amino)-N-methylpicolinamide], the “Range: increase in enzyme activity in comparison with non-treated cells (Enzyme activity assay for compounds of Examples 33-141)” value is on record as “C (Increase in comparison with non-treated of 1.2-1.7 fold is shown as C)”. Same read-out and setting: the value for `Nc1cc(Nc2cccc(O)c2)nc(C(=O)NC2Cc3ccccc3C2)c1` [Example 112, 4-Amino-N-(2,3-dihydro-1H-inden-2-yl)-6-((3-hydroxyphenyl)amino)picolinamide] was “A (Increase in comparison with non-treated of >2.0 fold is shown as A)”.

Take `Nc1nc(Nc2cccc(Br)c2)nc(C(=O)NC2CCc3ccccc3C2)n1` (stereo not drawn) [Example 19, 4-Amino-6-((3-bromophenyl)amino)-N-(1,2,3,4-tetrahydronaphthalen-2-yl)-1,3,5-triazine-2-carboxamide]: the “Range: increase in enzyme activity in comparison with non-treated cells (Enzyme activity assay for exemplified compounds)” value is “C (Increase in comparison with non-treated of 1.2-1.7 fold is shown as C)”.
